Laboratory results taken from patent US6319702A, “Nucleic acids encoding mutant human carboxypeptidase A enzymes” (Glaxo Wellcome, Inc., priority 1993, dated 2001).
Like-named read-outs stand apart in the source and are kept apart here.

Test: Stability and biodistribution of prodrugs in vivo (HPLC of plasma and tissues)
Parameters: species or system mice (CD-1 nude; BALB/C where indicated)
Details: 50 mg/kg i.p. or i.v., CD-1 nude mice
[1] = mouse, cecum, 50 mg/kg, CECUM, 30 min, read-out: stability: percentage of material observed as intact prodrug, cecum
[2] = mouse, kidney, 50 mg/kg, KIDNEY, 30 min, read-out: stability: percentage of material observed as intact prodrug, kidney
[3] = mouse, large intestine, 50 mg/kg, LARGE INTESTINE, 30 min, read-out: stability: percentage of material observed as intact prodrug, large intestine
[4] = mouse, liver, 50 mg/kg, LIVER, 30 min, read-out: stability: percentage of material observed as intact prodrug, liver (converted)
[5] = mouse, plasma, 50 mg/kg, PLASMA, 30 min, read-out: concentration of prodrug in plasma
[6] = mouse, plasma, 50 mg/kg, PLASMA, 30 min, read-out: stability: percentage of material observed as intact prodrug, plasma
[7] = mouse, plasma, 50 mg/kg, PLASMA, 120 min, read-out: concentration of prodrug in plasma
[8] = mouse, plasma, 50 mg/kg, PLASMA, 120 min, read-out: stability: percentage of material observed as intact prodrug, plasma
[9] = mouse, small intestine, 50 mg/kg, SMALL INTESTINE, 30 min, read-out: stability: percentage of material observed as intact prodrug, small intestine
[10] = mouse, small intestine, 50 mg/kg, SMALL INTESTINE, 120 min, read-out: stability: percentage of material observed as intact prodrug, small intestine
[11] = mouse, tumor, 50 mg/kg, TUMOR, 30 min, read-out: stability: percentage of material observed as intact prodrug, tumor

SMILES	concentration of prodrug in cecum (CECUM, 30 min) [nmol/g]	concentration of prodrug in kidney (KIDNEY, 30 min) [nmol/g]	concentration of prodrug in large intestine (LARGE INTESTINE, 30 min) [nmol/g]	concentration of prodrug in liver (LIVER, 30 min) [nmol/g]	concentration of prodrug in small intestine (SMALL INTESTINE, 30 min) [nmol/g]	concentration of prodrug in small intestine (SMALL INTESTINE, 120 min) [nmol/g]	concentration of prodrug in tumor (TUMOR, 30 min) [nmol/g]	remaining at 0.5 h [1] [%]	remaining at 0.5 h [2] [%]	remaining at 0.5 h [3] [%]	remaining at 0.5 h [4] [%]	concentration at 0.5 h [5] [µM]	remaining at 0.5 h [6] [%]	concentration at 2 h [7] [nM]	remaining at 2 h [8] [%]	remaining at 0.5 h [9] [%]	remaining at 2 h [10] [%]	remaining at 0.5 h [11] [%]	further results
Cc1nc2ccc3ccc(CNc4ccc(C(=O)N[C@@H](CCC(=O)O)C(=O)N[C@@H](CCC(=O)O)C(=O)O)c(F)c4)cc3c2c(=O)[nH]1 [Prodrug 1, N-(N-(4(((1,2-dihydro-3-methyl-1-oxobenzo(F)quinazolin-9-yl)methyl)amino)-2-fluorobenzoyl)-L-glutam-1-yl)-L-glutamic acid]	6.0	175.8	12.2	770.3	48.2	55.6	6.0	96	98	93	98	41.5	99	4200	100	83	68	96	concentration of prodrug in cecum (CECUM, 120 min): 1.2 nmol/g; concentration of prodrug in kidney (KIDNEY, 120 min): 70.3 nmol/g; concentration of prodrug in large intestine (LARGE INTESTINE, 120 min): 1.0 nmol/g; concentration of prodrug in liver (LIVER, 120 min): 579.8 nmol/g; concentration of prodrug in spleen (SPLEEN, 30 min): 23.4 nmol/g; concentration of prodrug in spleen (SPLEEN, 120 min): 1.8 nmol/g; concentration of prodrug in tumor (TUMOR, 120 min): 1.2 nmol/g; remaining at 2 h (mouse, cecum, 50 mg/kg, CECUM, 120 min, read-out: stability: percentage of material observed as intact prodrug, cecum): 76%; remaining at 2 h (mouse, kidney, 50 mg/kg, KIDNEY, 120 min, read-out: stability: percentage of material observed as intact prodrug, kidney): 97%; remaining at 2 h (mouse, large intestine, 50 mg/kg, LARGE INTESTINE, 120 min, read-out: stability: percentage of material observed as intact prodrug, large intestine): 100%; remaining at 2 h (mouse, liver, 50 mg/kg, LIVER, 120 min, read-out: stability: percentage of material observed as intact prodrug, liver): 97%; remaining at 0.5 h (mouse, spleen, 50 mg/kg, SPLEEN, 30 min, read-out: stability: percentage of material observed as intact prodrug, spleen): 100%; remaining at 2 h (mouse, spleen, 50 mg/kg, SPLEEN, 120 min, read-out: stability: percentage of material observed as intact prodrug, spleen): 100%; remaining at 2 h (mouse, tumor, 50 mg/kg, TUMOR, 120 min, read-out: stability: percentage of material observed as intact prodrug, tumor): 76%
Cc1nc2ccc3ccc(CNc4ccc5c(c4)CN([C@@H](CCC(=O)O)C(=O)N[C@@H](Cc4ccccc4)C(=O)O)C5=O)cc3c2c(=O)[nH]1 [Prodrug 2, N-((S)-4-carboxy-2-(5-(((1,2-dihydro-3-methyl-1-oxoxbenzo(F)quinazolin-9-yl)methyl)amino)-1-oxo-2-isoindolinyl)butanoyl)-L-phenylalanine]	2.7	9.0	5.9	42.0	170.2	17.6	2.7	96	96	93	96	33	100	300	93	91	47	98	concentration of prodrug in kidney (KIDNEY, 90 min): 1.3 nmol/g; concentration of prodrug in kidney (KIDNEY, 180 min): 0.2 nmol/g; concentration of prodrug in large intestine (LARGE INTESTINE, 90 min): 0.7 nmol/g; concentration of prodrug in large intestine (LARGE INTESTINE, 180 min): 1.3 nmol/g; concentration of prodrug in liver (LIVER, 90 min): 9.1 nmol/g; concentration of prodrug in liver (LIVER, 180 min): 0.8 nmol/g; concentration (PLASMA, 30 min, 50 mg/kg, 30 min, read-out: concentration of prodrug in plasma): 22.1 µM; remaining at 1.5 h (mouse, kidney, 50 mg/kg, KIDNEY, 90 min, read-out: stability: percentage of material observed as intact prodrug, kidney): 98%; remaining at 3 h (mouse, kidney, 50 mg/kg, KIDNEY, 180 min, read-out: stability: percentage of material observed as intact prodrug, kidney): 100%; remaining at 1.5 h (mouse, large intestine, 50 mg/kg, LARGE INTESTINE, 90 min, read-out: stability: percentage of material observed as intact prodrug, large intestine): 60%; remaining at 3 h (mouse, large intestine, 50 mg/kg, LARGE INTESTINE, 180 min, read-out: stability: percentage of material observed as intact prodrug, large intestine): 52%; remaining at 1.5 h (mouse, liver, 50 mg/kg, LIVER, 90 min, read-out: stability: percentage of material observed as intact prodrug, liver): 100%; remaining at 3 h (mouse, liver, 50 mg/kg, LIVER, 180 min, read-out: stability: percentage of material observed as intact prodrug, liver): 100%; concentration at 1.5 h (mouse, plasma, 50 mg/kg, PLASMA, 90 min, read-out: concentration of prodrug in plasma): 5.5 µM; remaining at 1.5 h (mouse, plasma, 50 mg/kg, PLASMA, 90 min, read-out: stability: percentage of material observed as intact prodrug, plasma): 98%; concentration at 3 h (mouse, plasma, 50 mg/kg, PLASMA, 180 min, read-out: concentration of prodrug in plasma): 3.5 µM; remaining at 3 h (mouse, plasma, 50 mg/kg, PLASMA, 180 min, read-out: stability: percentage of material observed as intact prodrug, plasma): 97%
